{"source": "patent US20040115739A1", "about": "“Method for identifying maxi-k channel blockers for use in lowering elevated intraocular pressure using hek-293 cells” (priority 2003, published 2004)", "format_in_all_cases": "cell-based", "key": {"[1]": {"test_system": "endogenous potassium conductances of HEK-293 cells", "assay": "VIPR/FRET membrane potential assay, high-potassium addition to HEK-293 cells", "settings": "FIG. 1; for effect on fluorescence signal caused by high-potassium addition: untransfected HEK-293 cells, different/increasing concentrations of compound; for efficacy (inhibition of fluorescence signal) in the presence of Compound 1: HEK-293 cells, selective maxi-K channel blocker Compound 1 present", "method": "HEK-293 cells were plated on 96-well poly-D-lysine plates and incubated for about 16 to 24 hours at 37° C. The media was aspirated and the cells were washed once with D-PBS. Cells were incubated with 9 μM coumarin (CC2DMPE)-0.02% pluronic-127 in D-PBS for 30 minutes in the dark. Cells were washed twice with D-PBS, and incubated with 4.5 μM oxanol (DiSBAC2(3)) in the absence (Control) or presence of increasing concentrations of test compound, in the dark for 30 minutes. Plates were loaded onto a VIPR instrument and the fluorescence emission of both dyes was recorded for 10 seconds. A solution containing high-potassium was then added and the fluorescence emission of the dyes was recorded for another 10 seconds. The coumarin/oxanol ratio was calculated under both conditions. Before addition of high-potassium, this ratio was always normalized to 1.\nThe signal is not affected by the presence of different concentrations of the selective maxi-K channel blocker, Compound 1. […] A useful concentration range for these agents is 3-10 μM. Importantly, in the presence of the selective maxi-K channel blocker Compound 1, the efficacy of either Compound A or Compound B is unaffected."}, "[2]": {"biological_target": "T1, maxi-K channels transiently expressed in TsA-201 cells (Homo sapiens, UniProt Q12791)", "T1 construct": "expressed in transfected cells; host or cells: TsA-201 cells, transient transfection", "assay": "VIPR/FRET membrane potential assay, maxi-K channels transiently expressed in TsA-201 cells", "settings": "FIG. 2", "description": "In order to discover novel maxi-K channel blockers, a robust and reliable functional assay is required. High throughput screening assays with ion channels have been developed (see Aurora Biosciences J. E. Gonzalez et al., DDT, 4, 431-439, 1999). For example, transient transfection of maxi-K channel alpha and beta1 subunits into TsA-201 cells leads to the maxi-K channel controlling the membrane potential of those cells, under appropriate experimental conditions. However, transient transfection experiments are limited because, typically, the transfection has to occur for every experiment, the cells are only available for assay twice a week and results can be variable depending on the transfection efficiency. This invention relates to a new functional assay, which utilizes HEK-293 cells, which once transfected remains as such, thereby eliminating the need for further transfection. The claimed method also provides more reliable reading of the maxi-K channel activity."}, "[3]": {"biological_target": "T2, maxi-K channel (alpha and beta 1 subunits) in stably transfected HEK-293 cells (Homo sapiens, UniProt Q12791)", "T2 construct": "expressed in transfected cells", "assay": "VIPR/FRET membrane potential assay, HEK-293 cells stably transfected with alpha and beta 1 subunits of the maxi-K channel", "method": "Transfection of the alpha and betal subunits of the maxi-K channel in HEK-293 cells was carried out as follows: HEK-293 cells were plated in 100 mm tissue culture treated dishes at a density of 3×10^6 cells per dish, and a total of five dishes were prepared. Cells were grown in a medium consisting of Dulbecco's Modified Eagle Medium (DMEM) supplemented with 10% Fetal Bovine serum, 1× L-Glutamine, and 1× Penicillin/Streptomycin, at 37° C., 10% CO2. For transfection with Maxi-K hα (pCIneo) and Maxi-K hβ1 (pIRESpuro) DNAs, 150 μl FuGENE6™ was added dropwise into 10 ml of serum free/phenol-red free DMEM and allowed to incubate at room temperature for 5 minutes. Then, the FuGENE6™ solution was added dropwise to a DNA solution containing 25 μg of each plasmid DNA, and incubated at room temperature for 30 minutes. After the incubation period, 2 ml of the FuGENE6™/DNA solution was added dropwise to each plate of cells and the cells were allowed to grow two days under the same conditions as described above. At the end of the second day, cells were put under selection media which consisted of DMEM supplemented with both 600 μg/ml G418 and 0.75 μg/ml puromycin. Cells were grown until separate colonies were formed. Five colonies were collected and transferred to a 6 well tissue culture treated dish. A total of 75 colonies were collected. Cells were allowed to grow until a confluent monolayer was obtained. Cells were then tested for the presence of maxi-K channel alpha and beta1 subunits using an assay that monitors binding of ^125I-iberiotoxin-D19Y/Y36F to the channel. Cells expressing ^125I-iberiotoxin-D19Y/Y36F binding activity were then evaluated in a functional assay that monitors the capability of maxi-K channels to control the membrane potential of transfected HEK-293 cells using fluorescence resonance energy transfer (FRET) ABS technology with a VIPR instrument. The colony giving the largest signal to noise ratio was subjected to limiting dilution. For this, cells were resuspended at approximately 5 cells/ml, and 200 μl were plated in individual wells in a 96 well tissue culture treated plate, to add ca. one cell per well. A total of two 96 well plates were made. When a confluent monolayer was formed, the cells were transferred to 6 well tissue culture treated plates. A total of 62 wells were transferred. When a confluent monolayer was obtained, cells were tested using the FRET-functional assay. […]\nThe plates are loaded into a voltage/ion probe reader (VIPR) instrument, and the fluorescence emission of both CC2DMPE and DiSBAC2(3) are recorded for 10 sec. At this point, 100 μl of high-potassium solution (mM): 140 KCl, 2 CaCl2, 1 MgCl2, 20 Hepes-KOH, pH 7.4, 10 glucose are added and the fluorescence emission of both dyes recorded for an additional 10 sec. […]"}}, "data": [{"smiles": "CC(=O)SCC(Cc1ccccc1)C(=O)NC(Cc1ccccc1)C(=O)NCCc1ccccc1", "note": "(stereo not drawn) [Compound 1]", "values": [{"measurement": "effect on fluorescence signal caused by high-potassium addition", "setting": "[1]", "result": "not affected"}, {"measurement": "inhibition of control signal", "setting": "[2]; 3 μM compound", "result": "completely inhibits the control signal"}, {"measurement": "inhibition of control signal with increasing concentrations", "setting": "[3]; 3 μM Compound A present in all wells, FIG. 4", "result": "concentration-dependent inhibition of the control signal"}, {"measurement": "block of signal generated by addition of high-potassium solution", "setting": "[3]; compound alone, no blocker of endogenous conductances, FIG. 3", "result": "only partially blocks the signal"}, {"measurement": "inhibition of signal generated by addition of high-potassium solution", "setting": "[3]; in the presence of potassium channel blocker Compound A, FIG. 3", "result": "complete inhibition of the signal"}]}, {"smiles": "COc1ccccc1C(=O)NCC1(c2ccccc2)CCC(=O)CC1", "note": "[Compound B]", "values": [{"measurement": "efficacy (inhibition of fluorescence signal) in the presence of Compound 1", "setting": "[1]", "result": "unaffected"}, {"measurement": "effect on fluorescence signal caused by high-potassium addition", "setting": "[1]", "result": "concentration-dependent inhibition of the fluorescence signal"}, {"measurement": "effect on maxi-K channel activity", "setting": "[2]", "result": "neither Compound A, nor Compound B have any effect on maxi-K channel activity"}]}, {"smiles": "CCCNC(=O)OC1CCC(CNC(=O)c2ccccc2OC)(c2ccccc2)CC1", "note": "(stereo not drawn) [Compound A]", "values": [{"measurement": "efficacy (inhibition of fluorescence signal) in the presence of Compound 1", "setting": "[1]", "result": "unaffected"}, {"measurement": "effect on fluorescence signal caused by high-potassium addition", "setting": "[1]", "result": "concentration-dependent inhibition of the fluorescence signal"}, {"measurement": "effect on maxi-K channel activity", "setting": "[2]", "result": "neither Compound A, nor Compound B have any effect on maxi-K channel activity"}, {"measurement": "effect on the magnitude of the signal caused by addition of high-potassium solution", "setting": "[3]; stably transfected HEK-293 cells, FIG. 3", "result": "no significant effect"}]}]}
